Test results: patent US7070892B2, “Imaging members” (Xerox Corporation, priority 2004, dated 2006)

Test: solubility of the electron transport component (CFM derivative) in organic solvents
Format: physicochemical

| Structure (SMILES) | solubility of the electron transport component (solvent is butylacetate) | solubility of the electron transport component (solvent is tetrahydrofuran) |
| --- | --- | --- |
| CCCCC(CC)COC(=O)c1cccc2c1-c1ccccc1C2=C(C#N)C#N (stereo not shown) [R8 is 2-ethylhexyl, 9-dicyanomethylenefluorene-4-(2-ethylhexyl)carboxylate] | 25 grams/liter | 205 grams/liter |
| CCCCOC(=O)c1cccc2c1-c1ccccc1C2=C(C#N)C#N [R8 is n-butyl, (4-n-butoxycarbonyl-9-fluorenylidene)malononitrile] | 8 grams/liter | 105 grams/liter |
